In one assay the target is EGFR L858R/C797S (Homo sapiens, UniProt P00533, C797S/L858R). The assay can be described thus: Biochemical EGFR kinase inhibition assay (Lance Ultra TR-FRET), double mutant L858R/C797S. In outline:
(§1)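 Kinase activity is measured by TR-FRET phosphopeptide detection. Compounds span 0.003 μM to 10 μM; the 1 h reaction at room temperature is quenched with EDTA, then labelled antibody (2 nM) is incubated 60 min before reading.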

The target of another assay is EGFR Del19/C797S (Homo sapiens, UniProt P00533, C797S/DEL746-750). The assay can be described thus: Biochemical EGFR kinase inhibition assay (Lance Ultra TR-FRET), double mutant del19/C797S. In outline: as §1
Sequence of EGFR Del19/C797S (P00533 with tags, fused parts or gaps DEL746-750/C797S): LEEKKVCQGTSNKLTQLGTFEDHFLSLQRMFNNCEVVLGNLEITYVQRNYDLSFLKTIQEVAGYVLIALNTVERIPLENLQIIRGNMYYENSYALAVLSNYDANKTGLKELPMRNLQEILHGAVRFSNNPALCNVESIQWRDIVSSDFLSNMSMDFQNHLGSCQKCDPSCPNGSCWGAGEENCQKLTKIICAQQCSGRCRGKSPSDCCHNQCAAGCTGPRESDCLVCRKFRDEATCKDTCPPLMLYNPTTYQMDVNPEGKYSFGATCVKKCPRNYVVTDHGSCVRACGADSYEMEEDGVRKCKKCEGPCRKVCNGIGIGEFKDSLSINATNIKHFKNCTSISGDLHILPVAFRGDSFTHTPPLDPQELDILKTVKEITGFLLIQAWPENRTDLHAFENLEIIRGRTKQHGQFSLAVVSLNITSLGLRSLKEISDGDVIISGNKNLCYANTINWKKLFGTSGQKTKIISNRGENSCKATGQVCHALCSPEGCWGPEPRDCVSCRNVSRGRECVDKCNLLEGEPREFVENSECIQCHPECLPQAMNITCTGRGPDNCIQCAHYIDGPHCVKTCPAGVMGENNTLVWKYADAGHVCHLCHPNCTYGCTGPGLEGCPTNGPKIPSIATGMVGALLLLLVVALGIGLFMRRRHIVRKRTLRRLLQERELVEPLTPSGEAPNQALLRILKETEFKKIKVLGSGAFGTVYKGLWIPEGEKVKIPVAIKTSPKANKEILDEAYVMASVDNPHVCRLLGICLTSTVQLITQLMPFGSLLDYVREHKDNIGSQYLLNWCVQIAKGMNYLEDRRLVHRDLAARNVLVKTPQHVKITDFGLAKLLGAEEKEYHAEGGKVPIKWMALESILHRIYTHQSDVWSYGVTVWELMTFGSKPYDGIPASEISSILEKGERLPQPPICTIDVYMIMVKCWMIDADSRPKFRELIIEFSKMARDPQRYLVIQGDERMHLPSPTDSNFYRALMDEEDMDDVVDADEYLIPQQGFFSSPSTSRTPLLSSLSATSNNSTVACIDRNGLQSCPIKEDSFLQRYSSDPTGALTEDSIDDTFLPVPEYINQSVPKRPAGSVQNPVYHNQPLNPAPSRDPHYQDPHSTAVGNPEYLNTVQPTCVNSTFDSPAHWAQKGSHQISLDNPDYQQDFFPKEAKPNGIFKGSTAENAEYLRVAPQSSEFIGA
For orientation: Time-resolved FRET reads energy transfer from a long-lived donor to a nearby acceptor.

A further assay addresses EGFR L858R/T790M/C797S (Homo sapiens, UniProt P00533, C797S/L858R/T790M). Nature of the assay: Biochemical EGFR kinase inhibition assay (Lance Ultra TR-FRET), triple mutant L858R/T790M/C797S. In outline:
as §1

The next assay has as its target EGFR wildtype (WT) (Homo sapiens, UniProt P00533). The assay can be described thus: Biochemical EGFR kinase inhibition assay (Lance Ultra TR-FRET), wildtype. In outline:
as §1

A further assay concerns the target EGFR Del19/T790M/C797S (Homo sapiens, UniProt P00533, C797S/DEL746-750/T790M). Nature of the assay: Biochemical EGFR kinase inhibition assay (Lance Ultra TR-FRET), triple mutant del19/T790M/C797S. A digest of the protocol: as §1
The mark [1] stands for this setting: IC50 L858R/C797S (nM), 100 μM ATP.
[2] abbreviates: IC50 Del19/C797S (nM), 100 μM ATP.
Where [3] appears, read: IC50 L858R/T790M/C797S (nM), 100 μM ATP.
The mark [4] stands for this setting: Km ATP, read-out: IC50 L858R/T790M/C797S (nM), Km ATP.
Where [5] appears, read: IC50 Del19/T790M/C797S (nM), 100 μM ATP.
Where [6] appears, read: Km ATP, read-out: IC50 Del19/T790M/C797S (nM), Km ATP.

Molecules are shown by their SMILES. Where two headings read alike, the source gives them in different places.

Sequence of EGFR wildtype (WT) (P00533 25-1210): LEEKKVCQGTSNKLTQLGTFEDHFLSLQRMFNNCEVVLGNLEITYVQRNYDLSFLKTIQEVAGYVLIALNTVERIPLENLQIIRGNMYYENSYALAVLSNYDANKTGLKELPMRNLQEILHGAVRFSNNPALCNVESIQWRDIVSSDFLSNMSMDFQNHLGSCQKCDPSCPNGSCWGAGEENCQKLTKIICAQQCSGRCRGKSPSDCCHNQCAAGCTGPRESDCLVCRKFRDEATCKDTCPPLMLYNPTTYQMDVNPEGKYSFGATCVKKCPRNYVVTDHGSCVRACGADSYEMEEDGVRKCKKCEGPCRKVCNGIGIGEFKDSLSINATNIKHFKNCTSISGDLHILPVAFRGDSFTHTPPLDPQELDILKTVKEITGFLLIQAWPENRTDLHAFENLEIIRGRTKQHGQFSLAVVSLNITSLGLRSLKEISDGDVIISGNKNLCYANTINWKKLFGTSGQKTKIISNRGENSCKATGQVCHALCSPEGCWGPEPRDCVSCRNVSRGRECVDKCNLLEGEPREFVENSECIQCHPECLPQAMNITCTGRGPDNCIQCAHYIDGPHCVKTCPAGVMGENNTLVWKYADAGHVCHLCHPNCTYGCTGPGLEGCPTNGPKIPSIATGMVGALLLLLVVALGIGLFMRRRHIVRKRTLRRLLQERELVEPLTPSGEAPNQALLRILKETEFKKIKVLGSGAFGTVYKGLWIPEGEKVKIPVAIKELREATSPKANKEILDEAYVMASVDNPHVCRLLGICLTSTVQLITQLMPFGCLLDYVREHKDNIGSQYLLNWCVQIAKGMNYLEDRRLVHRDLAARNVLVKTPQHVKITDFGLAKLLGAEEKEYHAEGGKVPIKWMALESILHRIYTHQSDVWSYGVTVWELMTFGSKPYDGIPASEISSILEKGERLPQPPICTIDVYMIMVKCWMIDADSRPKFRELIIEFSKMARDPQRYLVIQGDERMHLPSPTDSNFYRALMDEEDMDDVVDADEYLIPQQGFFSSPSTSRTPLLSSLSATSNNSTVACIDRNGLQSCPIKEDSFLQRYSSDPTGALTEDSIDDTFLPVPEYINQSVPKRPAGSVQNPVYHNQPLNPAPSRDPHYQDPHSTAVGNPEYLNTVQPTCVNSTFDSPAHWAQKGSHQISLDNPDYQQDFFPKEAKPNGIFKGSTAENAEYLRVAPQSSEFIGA
Sequence of EGFR Del19/T790M/C797S (P00533 with tags, fused parts or gaps DEL746-750/T790M/C797S): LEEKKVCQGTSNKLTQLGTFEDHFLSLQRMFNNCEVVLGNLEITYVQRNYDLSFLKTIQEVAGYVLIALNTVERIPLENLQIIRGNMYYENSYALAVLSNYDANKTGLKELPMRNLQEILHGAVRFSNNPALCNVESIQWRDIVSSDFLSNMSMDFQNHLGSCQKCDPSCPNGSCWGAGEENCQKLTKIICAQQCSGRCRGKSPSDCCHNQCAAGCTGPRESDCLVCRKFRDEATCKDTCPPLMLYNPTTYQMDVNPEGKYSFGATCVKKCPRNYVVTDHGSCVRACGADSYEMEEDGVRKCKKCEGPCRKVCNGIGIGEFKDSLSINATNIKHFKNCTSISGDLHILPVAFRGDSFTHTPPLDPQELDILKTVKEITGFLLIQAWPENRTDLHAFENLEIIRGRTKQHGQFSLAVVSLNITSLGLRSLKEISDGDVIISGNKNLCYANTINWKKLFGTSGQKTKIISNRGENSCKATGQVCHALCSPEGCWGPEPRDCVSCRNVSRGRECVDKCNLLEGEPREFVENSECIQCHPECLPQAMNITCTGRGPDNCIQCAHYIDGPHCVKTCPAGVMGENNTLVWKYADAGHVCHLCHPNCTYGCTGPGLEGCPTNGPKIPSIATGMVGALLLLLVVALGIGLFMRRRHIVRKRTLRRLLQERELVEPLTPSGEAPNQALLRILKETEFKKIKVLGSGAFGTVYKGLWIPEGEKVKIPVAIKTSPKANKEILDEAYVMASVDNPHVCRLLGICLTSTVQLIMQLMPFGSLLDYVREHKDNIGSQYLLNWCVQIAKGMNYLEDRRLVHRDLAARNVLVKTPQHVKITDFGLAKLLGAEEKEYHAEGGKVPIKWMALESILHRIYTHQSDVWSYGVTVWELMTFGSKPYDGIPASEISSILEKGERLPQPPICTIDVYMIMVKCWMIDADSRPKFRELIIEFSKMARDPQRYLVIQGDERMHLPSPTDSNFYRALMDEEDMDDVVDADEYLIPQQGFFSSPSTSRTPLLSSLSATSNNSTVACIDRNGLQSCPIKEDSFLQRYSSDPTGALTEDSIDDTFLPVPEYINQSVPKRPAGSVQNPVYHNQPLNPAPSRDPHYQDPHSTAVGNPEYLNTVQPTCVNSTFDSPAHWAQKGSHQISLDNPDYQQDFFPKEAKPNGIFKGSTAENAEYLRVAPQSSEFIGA
Sequence of EGFR L858R/T790M/C797S (P00533 25-1210 T790M/C797S/L858R): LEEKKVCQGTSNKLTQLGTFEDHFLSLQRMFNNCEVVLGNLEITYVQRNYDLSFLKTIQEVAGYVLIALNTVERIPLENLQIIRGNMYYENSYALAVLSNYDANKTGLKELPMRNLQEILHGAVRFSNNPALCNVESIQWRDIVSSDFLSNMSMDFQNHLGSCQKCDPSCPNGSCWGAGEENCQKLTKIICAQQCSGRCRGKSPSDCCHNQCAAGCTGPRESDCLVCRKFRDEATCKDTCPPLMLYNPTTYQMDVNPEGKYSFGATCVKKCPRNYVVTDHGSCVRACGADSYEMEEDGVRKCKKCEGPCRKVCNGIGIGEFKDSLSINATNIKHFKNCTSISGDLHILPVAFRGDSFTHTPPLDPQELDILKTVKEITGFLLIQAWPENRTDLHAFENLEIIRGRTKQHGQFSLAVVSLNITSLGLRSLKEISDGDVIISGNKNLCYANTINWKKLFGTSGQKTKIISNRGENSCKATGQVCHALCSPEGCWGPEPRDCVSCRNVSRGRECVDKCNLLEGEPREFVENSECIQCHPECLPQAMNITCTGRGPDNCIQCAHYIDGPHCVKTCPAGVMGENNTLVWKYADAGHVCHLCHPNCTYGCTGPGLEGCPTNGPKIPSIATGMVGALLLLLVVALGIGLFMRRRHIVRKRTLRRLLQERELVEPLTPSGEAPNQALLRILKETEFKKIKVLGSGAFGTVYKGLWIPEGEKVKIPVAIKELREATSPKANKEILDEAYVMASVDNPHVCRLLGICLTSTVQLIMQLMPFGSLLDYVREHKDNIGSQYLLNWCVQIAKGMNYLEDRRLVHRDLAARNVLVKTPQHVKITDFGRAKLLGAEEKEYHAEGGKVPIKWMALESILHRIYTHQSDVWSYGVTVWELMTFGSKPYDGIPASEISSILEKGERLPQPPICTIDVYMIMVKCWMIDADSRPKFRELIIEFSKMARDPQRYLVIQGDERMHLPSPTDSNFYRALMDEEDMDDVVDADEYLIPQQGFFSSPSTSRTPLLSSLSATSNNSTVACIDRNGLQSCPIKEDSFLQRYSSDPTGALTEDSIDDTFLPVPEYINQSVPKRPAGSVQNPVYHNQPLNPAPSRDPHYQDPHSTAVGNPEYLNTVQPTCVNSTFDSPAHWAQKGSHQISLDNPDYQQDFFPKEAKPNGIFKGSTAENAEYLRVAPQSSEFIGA

On to `CC1OCCC1C#Cc1cnc(Nc2ccnc(-c3cnn(S(=O)(=O)C4CC4)c3)n2)cc1NCC1CCC(O)CC1` (stereo not drawn) [Example 431, (1 r,4r)-4-(((2-((2-(1-(Cyclopropylsulfonyl)-1H-pyrazol-4-yl)pyrimidin-4-yl)amino)-5-((2-methyltetrahydrofuran-3-yl)ethynyl)pyridin-4-yl)amino)methyl)cyclohexan-1-ol], for which the IC50 was 2090 nM against EGFR L858R/C797S (setting [1]); 78.1 nM against EGFR Del19/C797S (setting [2]); 4.7 nM at EGFR L858R/T790M/C797S (setting [3]); 1 nM on EGFR L858R/T790M/C797S (setting [4]); above 10000 nM on EGFR wildtype (WT) (IC50 WT (nM), 100 μM ATP); 2.7 nM against EGFR Del19/T790M/C797S (setting [5]). The IC50 at EGFR Del19/T790M/C797S (setting [6]) was found to be 1.2 nM.
For `Cn1cnc(C#Cc2cnc(Nc3ccnc(-c4cnn(S(=O)(=O)C5CC5)c4)n3)cc2N[C@@H]2CC[C@H](O)C2)c1` [Example 223, (1S,3R)-3-((2-((2-(1-(Cyclopropylsulfonyl)-1H-pyrazol-4-yl)pyrimidin-4-yl)amino)-5-((1-methyl-1H-imidazol-4-yl)ethynyl)pyridin-4-yl)amino)cyclopentan-1-ol], the IC50 is 44.7 nM on EGFR L858R/C797S (setting [1]); 6.7 nM against EGFR Del19/C797S (setting [2]); 0.8 nM against EGFR L858R/T790M/C797S (setting [3]); above 10000 nM against EGFR wildtype (WT) (IC50 WT (nM), 100 μM ATP); 0.5 nM on EGFR Del19/T790M/C797S (setting [5]).
Consider `Cn1ncc(C#Cc2cnc(Nc3ccnc(-c4cnn(S(=O)(=O)C5CC5)c4)n3)cc2N[C@H]2CC[C@@H](O)CC2)c1C1CC1` [Example 88, (1s,4s)-4-((5-((5-Cyclopropyl-1-methyl-1H-pyrazol-4-yl)ethynyl)-2-((2-(1-(cyclopropylsulfonyl)-1H-pyrazol-4-yl)pyrimidin-4-yl)amino)pyridin-4-yl)amino)cyclohexan-1-ol], for which the IC50 against EGFR L858R/C797S (setting [1]) is 65 nM; at EGFR Del19/C797S (setting [2]) it was 15.6 nM; against EGFR L858R/T790M/C797S (setting [3]), 3.9 nM; on EGFR wildtype (WT) (IC50 WT (nM), 100 μM ATP), above 10000 nM; at EGFR Del19/T790M/C797S (setting [5]), 1.6 nM.
For `O=S(=O)(C1CC1)n1cc(-c2nccc(Nc3cc(N[C@H]4CCC[C@H](O)C4)c(C#Cc4ccc(CN5CCOCC5)cc4)cn3)n2)cn1` [Example 161, (1 S,3S)-3-((2-((2-(1-(Cyclopropylsulfonyl)-1H-pyrazol-4-yl)pyrimidin-4-yl)amino)-5-((4-(morpholinomethyl)phenyl)ethynyl)pyridin-4-yl)amino)cyclohexan-1-ol], the IC50 turned out to be 21.6 nM on EGFR L858R/C797S (ATP at Km, read-out: IC50 L858R/C797S (nM), Km ATP); 547 nM on EGFR L858R/C797S (setting [1]); 25.5 nM at EGFR Del19/C797S (ATP at Km, read-out: IC50 Del19/C797S (nM), Km ATP); 38.2 nM at EGFR Del19/C797S (setting [2]); 3.2 nM on EGFR L858R/T790M/C797S (ATP at Km, read-out: IC50 L858R/T790M/C797S (nM), Km ATP); 10.6 nM on EGFR L858R/T790M/C797S (setting [3]). Besides, the IC50 on EGFR wildtype (WT) (ATP at Km, read-out: IC50 WT (nM), Km ATP) was 650 nM; on EGFR wildtype (WT) (IC50 WT (nM), 100 μM ATP) it was above 10000 nM; at EGFR Del19/T790M/C797S (ATP at Km, read-out: IC50 Del19/T790M/C797S (nM), Km ATP), 5.5 nM; on EGFR Del19/T790M/C797S (setting [5]), 8.8 nM.
Turning to `O=S(=O)(C1CC1)n1cc(-c2nccc(Nc3cc(NC4CCC(O)CC4)c(C#CC4CCCO4)cn3)n2)cn1` (stereo not drawn) [Example 376, (1s,4s)-4-((2-((2-(1-(Cyclopropylsulfonyl)-1H-pyrazol-4-yl)pyrimidin-4-yl)amino)-5-((tetrahydrofuran-2-yl)ethynyl)pyridin-4-yl)amino)cyclohexan-1-ol], the IC50 against EGFR L858R/C797S (setting [1]) was 102 nM; at EGFR L858R/C797S (Km ATP, read-out: IC50 L858R/C797S (nM), Km ATP), 7.8 nM; at EGFR Del19/C797S (setting [2]) it was 2.5 nM; on EGFR Del19/C797S (Km ATP, read-out: IC50 Del19/C797S (nM), Km ATP) it was 1.4 nM; against EGFR L858R/T790M/C797S (setting [3]) it was 1.1 nM; on EGFR L858R/T790M/C797S (setting [4]), 3.4 nM. In addition, the IC50 against EGFR wildtype (WT) (IC50 WT (nM), 100 μM ATP) was above 10000 nM; at EGFR wildtype (WT) (Km ATP, read-out: IC50 WT (nM), Km ATP) it was 15.1 nM; against EGFR Del19/T790M/C797S (setting [5]), 0.5 nM; at EGFR Del19/T790M/C797S (setting [6]), 0.3 nM.
With `CN(C)CC1(C)CCN(c2cc(Nc3ccnc(-c4cnn(S(=O)(=O)C5CC5)c4)n3)ncc2C#CC2CCN(C(=O)C(F)(F)F)C2)CC1` (stereo not drawn) [Example 412, 1-(3-((6-((2-(1-(Cyclopropylsulfonyl)-1H-pyrazol-4-yl)pyrimidin-4-yl)amino)-4-(4-((dimethylamino)methyl)-4-methylpiperidin-1-yl)pyridin-3-yl)ethynyl)pyrrolidin-1-yl)-2,2,2-trifluoroethan-1-one], the IC50 is 21.5 nM against EGFR L858R/C797S (setting [1]); 3.3 nM at EGFR Del19/C797S (setting [2]); 2.7 nM at EGFR L858R/T790M/C797S (setting [3]); above 10000 nM on EGFR wildtype (WT) (IC50 WT (nM), 100 μM ATP); 0.3 nM against EGFR Del19/T790M/C797S (setting [5]).
